IC50 data for 18 compounds are collected here from patent US10246429B2, “Vinyl fluoride cyclopropyl fused thiazin-2-amine compounds as beta-secretase inhibitors and methods of use” (AMGEN INC., priority 2015, dated 2019).

One experiment deals with BACE2 (Homo sapiens (Human), UniProt Q9Y5Z0). In words: In vitro enzymatic BACE2 FRET assay. It is filed as biochemical. The note with it: read-out: IC50 IP (μM) BACE2 Enzyme.
A further experiment deals with Cathepsin D (CatD) (Homo sapiens (Human), UniProt P07339). In words: CatD assay. It is filed as biochemical. Particulars: read-out: IC50 IP (μM) CatD.
For experiment [1], the target named is T1, BACE1 (Homo sapiens (Human), UniProt P56817). The experiment can be described thus: BACE1 cell assay. It counts as cell-based.
Target sequence in this assay (P56817 46-501, species assumed): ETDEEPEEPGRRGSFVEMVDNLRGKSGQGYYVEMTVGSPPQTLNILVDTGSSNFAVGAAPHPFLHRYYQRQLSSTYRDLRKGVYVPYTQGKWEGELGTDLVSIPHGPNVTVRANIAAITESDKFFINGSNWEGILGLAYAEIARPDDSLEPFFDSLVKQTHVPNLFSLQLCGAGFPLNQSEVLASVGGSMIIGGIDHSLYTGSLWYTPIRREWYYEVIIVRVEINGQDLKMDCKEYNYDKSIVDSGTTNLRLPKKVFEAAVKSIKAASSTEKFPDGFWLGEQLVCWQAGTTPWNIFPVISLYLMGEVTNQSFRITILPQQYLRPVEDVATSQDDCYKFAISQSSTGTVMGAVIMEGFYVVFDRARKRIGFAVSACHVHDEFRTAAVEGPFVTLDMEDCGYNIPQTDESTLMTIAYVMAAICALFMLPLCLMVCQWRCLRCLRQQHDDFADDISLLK
Experiment [2] deals with T1, BACE1. The experiment can be described thus: In vitro enzymatic BACE1 FRET assay. It counts as biochemical. The note with it: read-out: IC50 IP (μM) BACE1 Enzyme.
Target sequence in this assay (P56817 46-501): as the sequence (P56817 46-501, species assumed) above
Text: (§1) In Vitro Enzymatic BACE1 and BACE2 FRET (Fluorescence Resonance Energy Transfer) Assays (Enzyme Assay Data in Table 1)
The mark [3] stands for this setting: read-out: IC50 IP (μM) BACE1 Cell.

Molecules are shown by their SMILES.

Chain of Cathepsin D (CatD) (P07339 65-412, species assumed): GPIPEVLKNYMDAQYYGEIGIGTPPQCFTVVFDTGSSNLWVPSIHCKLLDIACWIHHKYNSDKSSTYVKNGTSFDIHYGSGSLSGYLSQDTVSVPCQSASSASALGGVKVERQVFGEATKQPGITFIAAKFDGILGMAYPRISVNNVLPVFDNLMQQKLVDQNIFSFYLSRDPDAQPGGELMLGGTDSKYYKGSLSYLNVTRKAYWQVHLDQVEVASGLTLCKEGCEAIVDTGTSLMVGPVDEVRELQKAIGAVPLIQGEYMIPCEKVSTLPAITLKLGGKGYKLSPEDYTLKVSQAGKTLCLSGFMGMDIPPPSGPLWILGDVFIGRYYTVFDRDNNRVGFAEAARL
Chain of BACE2 (Q9Y5Z0 63-518): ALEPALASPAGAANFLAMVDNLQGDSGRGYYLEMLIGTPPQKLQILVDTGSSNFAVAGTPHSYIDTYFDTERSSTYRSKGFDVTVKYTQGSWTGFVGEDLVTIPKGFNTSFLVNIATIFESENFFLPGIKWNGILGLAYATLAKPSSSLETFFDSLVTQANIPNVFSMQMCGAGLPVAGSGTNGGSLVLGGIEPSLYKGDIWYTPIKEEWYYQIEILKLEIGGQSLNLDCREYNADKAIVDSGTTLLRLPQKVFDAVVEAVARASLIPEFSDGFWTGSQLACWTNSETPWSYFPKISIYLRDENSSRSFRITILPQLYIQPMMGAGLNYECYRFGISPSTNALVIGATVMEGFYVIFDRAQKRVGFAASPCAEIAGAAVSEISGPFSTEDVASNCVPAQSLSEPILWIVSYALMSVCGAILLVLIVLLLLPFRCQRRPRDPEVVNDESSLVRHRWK
Text for BACE2: as §1

Usually IC50 stands for the midpoint of a concentration-inhibition curve. Consider `Cc1noc(COc2cnc(/C(F)=C/c3ccc(F)c([C@@]4(C)N=C(N)S[C@@]5(C(=O)N(C)C)C[C@H]54)c3)cn2)n1` [Example 217, (1S,5S,6S)-3-amino-5-(2-fluoro-5-((Z)-2-fluoro-2-(5-((3-methyl-1,2,4-oxadiazol-5-yl)methoxy)pyrazin-2-yl)vinyl)phenyl)-N,N,5-trimethyl-2-thia-4-azabicyclo[4.1.0]hept-3-ene-1-carboxamide], for which the half-inhibitory concentration (IC50) is 0.07 µM on BACE2, 438 µM at Cathepsin D (CatD), 0.002 µM on BACE1 [1] (setting [3]) and 0.002 µM on BACE1 [2].

Regarding `Cc1cc(COc2cnc(/C(F)=C/c3ccc(F)c([C@@]4(C)N=C(N)S[C@@]5(C(=O)N(C)C)C[C@H]54)c3)cn2)on1` [Example 218, (1S,5S,6S)-3-amino-5-(2-fluoro-5-((Z)-2-fluoro-2-(5-((3-methylisoxazol-5-yl)methoxy)pyrazin-2-yl)vinyl)phenyl)-N,N,5-trimethyl-2-thia-4-azabicyclo[4.1.0]hept-3-ene-1-carboxamide], the IC50 at BACE2 amounted to 0.033 µM; at Cathepsin D (CatD), 156 µM; on BACE1 [1] it was 0.04 µM; on BACE1 [2], 0.01 µM.

Regarding `CN(C)C(=O)[C@]12C[C@H]1[C@@](C)(c1cc(/C=C(\F)c3ncc(C#N)s3)ccc1F)N=C(N)S2` [Example 219, (1S,5S,6S)-3-amino-5-(5-((Z)-2-(5-cyanothiazol-2-yl)-2-fluorovinyl)-2-fluorophenyl)-N,N,5-trimethyl-2-thia-4-azabicyclo[4.1.0]hept-3-ene-1-carboxamide], the IC50 turned out to be 0.007 µM at BACE2, 110 µM on Cathepsin D (CatD), 0.005 µM at BACE1 [1] (setting [3]) and 0.004 µM at BACE1 [2].

As for `CN(C)C(=O)[C@]12C[C@H]1[C@@](C)(c1cc(/C=C(\F)c3ccc(C#N)s3)ccc1F)N=C(N)S2` [Example 220, (1S,5S,6S)-3-amino-5-(5-((Z)-2-(5-cyanothiophen-2-yl)-2-fluorovinyl)-2-fluorophenyl)-N,N,5-trimethyl-2-thia-4-azabicyclo[4.1.0]hept-3-ene-1-carboxamide], the IC50 on BACE2 was found to be 0.002 µM; at Cathepsin D (CatD), 26.4 µM; at BACE1 [1] (setting [3]) it was 0.022 µM; at BACE1 [2], 0.011 µM.

Turning to `CN(C)C(=O)[C@]12C[C@H]1[C@@](C)(c1cc(/C(F)=C/c3ccc(C#N)cc3)ccc1F)N=C(N)S2` [Example 221, (1S,5S,6S)-3-amino-5-(5-((Z)-2-(4-cyanophenyl)-1-fluorovinyl)-2-fluorophenyl)-N,N,5-trimethyl-2-thia-4-azabicyclo[4.1.0]hept-3-ene-1-carboxamide], the IC50 at BACE2 turned out to be 0.302 µM; at Cathepsin D (CatD), 48.6 µM; against BACE1 [1], 0.575 µM; on BACE1 [2], 0.128 µM.

As for `CNC(=O)[C@]12C[C@H]1[C@@](C)(c1cc(/C=C(\F)c3ccc(C(F)(F)F)cn3)ccc1F)N=C(N)S2` [Example 224, (1S,5S,6S)-3-amino-5-(2-fluoro-5-((Z)-2-fluoro-2-(5-(trifluoromethyl)pyridin-2-yl)vinyl)phenyl)-N,5-dimethyl-2-thia-4-azabicyclo[4.1.0]hept-3-ene-1-carboxamide], the IC50 on BACE2 was determined as 0.564 µM; at Cathepsin D (CatD), 396 µM; at BACE1 [1], 0.031 µM; at BACE1 [2], 0.015 µM.

Take `CNC(=O)[C@]12C[C@H]1[C@@](C)(c1cc(/C=C(\F)c3ncc(C#N)cc3C)ccc1F)N=C(N)S2` [Example 225, (1S,5S,6S)-3-amino-5-(5-((Z)-2-(5-cyano-3-methylpyridin-2-yl)-2-fluorovinyl)-2-fluorophenyl)-N,5-dimethyl-2-thia-4-azabicyclo[4.1.0]hept-3-ene-1-carboxamide]: the IC50 turned out to be 0.621 µM at BACE2, 198 µM on Cathepsin D (CatD), 0.033 µM at BACE1 [1] and 0.027 µM at BACE1 [2].

As for `CNC(=O)[C@]12C[C@H]1[C@@](C)(c1cc(/C=C(\F)c3cnc(OCc4cnco4)cn3)ccc1F)N=C(N)S2` [Example 226, (1S,5S,6S)-3-amino-5-(2-fluoro-5-((Z)-2-fluoro-2-(5-(oxazol-5-ylmethoxy)pyrazin-2-yl)vinyl)phenyl)-N,5-dimethyl-2-thia-4-azabicyclo[4.1.0]hept-3-ene-1-carboxamide], the IC50 at BACE2 was found to be 0.285 µM; at Cathepsin D (CatD), 18.5 µM; against BACE1 [1] it was 0.608 µM; on BACE1 [2] it was 0.126 µM.

With `C#CCOc1cnc(/C(F)=C/c2ccc(F)c([C@@]3(C)N=C(N)S[C@@]4(S(C)(=O)=O)C[C@H]43)c2)cn1` [Example 227, (1R,5S,6S)-5-(2-fluoro-5-((Z)-2-fluoro-2-(5-(prop-2-yn-1-yloxy)pyrazin-2-yl)vinyl)phenyl)-5-methyl-1-(methylsulfonyl)-2-thia-4-azabicyclo[4.1.0]hept-3-en-3-amine], the IC50 at BACE2 was determined as 0.058 µM; at Cathepsin D (CatD) it was 55.1 µM; against BACE1 [1], 0.0105 µM; at BACE1 [2], 0.0006 µM.

Consider `C[C@]1(c2cc(/C=C(\F)c3cnc(Cl)cn3)ccc2F)N=C(N)S[C@@]2(S(C)(=O)=O)C[C@H]21` [Example 230, (1R,5S,6S)-5-(5-((Z)-2-(5-chloropyrazin-2-yl)-2-fluorovinyl)-2-fluorophenyl)-5-methyl-1-(methylsulfonyl)-2-thia-4-azabicyclo[4.1.0]hept-3-en-3-amine], for which the IC50 amounted to 0.011 µM at BACE2, 121 µM at Cathepsin D (CatD), 0.231 µM at BACE1 [1] (setting [3]) and 0.0057 µM at BACE1 [2].

For the compound `C#C[C@H](C)Oc1cnc(/C(F)=C/c2ccc(F)c([C@@]3(C)N=C(N)S[C@@]4(S(C)(=O)=O)C[C@H]43)c2)cn1` [Example 232, (1R,5S,6S)-5-(5-((Z)-2-(5-((S)-but-3-yn-2-yloxy)pyrazin-2-yl)-2-fluorovinyl)-2-fluorophenyl)-5-methyl-1-(methylsulfonyl)-2-thia-4-azabicyclo[4.1.0]hept-3-en-3-amine], the IC50 on BACE2 was 0.108 µM; on Cathepsin D (CatD), 88.5 µM; on BACE1 [1] (setting [3]), 0.0395 µM; on BACE1 [2], 0.001 µM.

For `C[C@]1(c2cc(/C=C(\F)c3ccc(C#N)cn3)ccc2F)N=C(N)S[C@@]2(S(C)(=O)=O)C[C@H]21` [Example 233, 6-((Z)-2-(3-((1R,5S,6S)-3-amino-5-methyl-1-(methylsulfonyl)-2-thia-4-azabicyclo[4.1.0]hept-3-en-5-yl)-4-fluorophenyl)-1-fluorovinyl)nicotinonitrile], the IC50 on BACE2 was 0.014 µM; at Cathepsin D (CatD), 204 µM; on BACE1 [1] (setting [3]), 0.0087 µM; on BACE1 [2] it was 0.0016 µM.

As for `C#CCOc1cnc(/C(F)=C/c2ccc(F)c([C@@]3(C)N=C(N)S[C@@]4(C(C)=O)C[C@H]43)c2)cn1` [Example 234, 1-((1S,5S,6S)-3-amino-5-(2-fluoro-5-((Z)-2-fluoro-2-(5-(prop-2-yn-1-yloxy)pyrazin-2-yl)vinyl)phenyl)-5-methyl-2-thia-4-azabicyclo[4.1.0]hept-3-en-1-yl)ethanone], the IC50 on BACE2 was found to be 0.581 µM; at Cathepsin D (CatD), 125 µM; on BACE1 [1], 0.0111 µM; at BACE1 [2], 0.0059 µM.

As for `CC#CCOc1cnc(/C(F)=C/c2ccc(F)c([C@@]3(C)N=C(N)S[C@@]4(C(C)=O)C[C@H]43)c2)cn1` [Example 235, 1-((1S,5S,6S)-3-amino-5-(5-((Z)-2-(5-(but-2-yn-1-yloxy)pyrazin-2-yl)-2-fluorovinyl)-2-fluorophenyl)-5-methyl-2-thia-4-azabicyclo[4.1.0]hept-3-en-1-yl)ethanone], the IC50 was 0.247 µM at BACE2, 587 µM at Cathepsin D (CatD), 0.0058 µM on BACE1 [1] (setting [3]) and 0.0022 µM on BACE1 [2].

In the case of `CC(=O)[C@]12C[C@H]1[C@@](C)(c1cc(/C=C(\F)c3cnc(OCC(F)(F)F)cn3)ccc1F)N=C(N)S2` [Example 236, 1-((1S,5S,6S)-3-amino-5-(2-fluoro-5-((Z)-2-fluoro-2-(5-(2,2,2-trifluoroethoxy)pyrazin-2-yl)vinyl)phenyl)-5-methyl-2-thia-4-azabicyclo[4.1.0]hept-3-en-1-yl)ethanone], the IC50 on BACE2 came out at 1.28 µM; on Cathepsin D (CatD), 400 µM; on BACE1 [1] (setting [3]), 0.284 µM; at BACE1 [2] it was 0.118 µM.

`CC(=O)[C@]12C[C@H]1[C@@](C)(c1cc(/C=C(\F)c3ccc(C#N)cn3)ccc1F)N=C(N)S2` [Example 238, 6-((Z)-2-(3-((1S,5S,6S)-1-acetyl-3-amino-5-methyl-2-thia-4-azabicyclo[4.1.0]hept-3-en-5-yl)-4-fluorophenyl)-1-fluorovinyl)nicotinonitrile]: the IC50 at BACE2 was determined as 0.245 µM; on Cathepsin D (CatD), 892 µM; at BACE1 [1], 0.0066 µM; on BACE1 [2], 0.0121 µM.

`C#CCOc1cnc(/C(F)=C/c2ccc(F)c([C@@]3(C)N=C(N)S[C@@]4(C#N)C[C@H]43)c2)cn1` [Example 240, (1S,5S,6S)-3-amino-5-(2-fluoro-5-((Z)-2-fluoro-2-(5-(prop-2-yn-1-yloxy)pyrazin-2-yl)vinyl)phenyl)-5-methyl-2-thia-4-azabicyclo[4.1.0]hept-3-ene-1-carbonitrile]: the IC50 on BACE2 came out at 0.081 µM; on Cathepsin D (CatD), 124 µM; on BACE1 [1] (setting [3]), 0.0175 µM; on BACE1 [2], 0.0012 µM.

For the compound `C[C@]1(c2cc(/C=C(\F)c3ccc(Cl)cn3)ccc2F)N=C(N)S[C@@]2(C(N)=O)C[C@H]21` [Example 242, (1S,5S,6S)-3-amino-5-(5-((Z)-2-(5-chloropyridin-2-yl)-2-fluorovinyl)-2-fluorophenyl)-5-methyl-2-thia-4-azabicyclo[4.1.0]hept-3-ene-1-carboxamide], the IC50 at BACE2 was 0.034 µM; at Cathepsin D (CatD), 205 µM; against BACE1 [1], 0.0181 µM; at BACE1 [2] it was 0.0164 µM.
